Values of other authors, collected in patent US20110250279A1, “CONTROLLED-RELEASE COMPOSITION FOR PRODUCING SUSTAINED-RELEASE PREPARATION CONTAINING UDENAFIL” (Dong-A Pharm. Co., Ltd., priority 2008, published 2011).

Legend:
[1] = phase 1 clinical tests (Koreans and Caucasians)
PDE-5 = PDE-5 (Homo sapiens, UniProt O76074)
[2] = not given; remark: listed apart in the source

CCCOc1ccc(S(=O)(=O)NCCC2CCCN2C)cc1-c1nc2c(CCC)nn(C)c2c(=O)[nH]1 (stereo not drawn) [Udenafil, 3-(1-methyl-7-oxo-3-propyl-4,7-dihydro-1H-pyrazolo[4,3-d]pyrimidin-5-yl)-N-[2-(1-methylpyrrolidin-2-yl)ethyl]-4-propoxybenzenesulfonamide]
drug discontinuation rate (during the clinical tests): lowest
extent and frequency of side effects (phase 2 and 3 clinical tests, versus conventional oral therapeutic agents for erectile dysfunction): lower
serious abnormal reactions by drugs [1]: did not generate serious abnormal reactions
inhibitory activity for PDE-5 (PDE-5): strong inhibitory activity
selectivity for PDE-5 (PDE-5): high selectivity
volume of distribution in vivo [2]: large volume of distribution
absorption ([2]; in vivo): rapidly absorbed
bioavailability ([2]; in vivo): high bioavailability
half life relative to sildenafil or vardenafil ([2]; in vivo): about three times longer
